Experiments:
human recombinant MMP-9 = target: T1, human recombinant MMP-9 (Homo sapiens, UniProt P14780); assay: Measurement of the activity of metalloproteinase MMP-9 (DQ-gelatin fluorescence); format: biochemical; details: incubation concentration 0.1 % DE; relative to the control
T1 construct: purchased CALBIOCHEM PF024
Description: The objective of this test is to evaluate the inhibitory capacity of a product on the enzymatic activity of MMP-2 and MMP-9. This test is based on an enzymatic reaction between purified MMP-2 or MMP-9 and a specific substrate containing a chromophore. The degradation of the chromogenic substrate by the enzyme leads to the production of fluorescence monitored by fluorimetry.
(i)—A human recombinant MMP-9 (CALBIOCHEM, PF024) is incubated, at 0.05 μg/ml, in the presence of the product and the chromogenic substrate, DQ-gelatin conjugated with fluorescein (MOLECULAR PROBE, D12054) at 10 μg/ml. The reaction mixture is incubated overnight at room temperature, protected from light. The quantity of DQ-gelatin degraded is measured by fluorescence (Ex: 355 nm; Em: 460 nm).
The reactivity of the enzymatic system is systematically monitored for the measurement of the effect of a metalloproteinase inhibitor, 1,10-phenanthroline. The results are presented in the following table, as a percentage inhibition of the enzymatic activity of MMP-2 and MMP-9 relative to the control.

human adipocytes = assay: Assay of the free fatty acids (lipolytic activity) in isolated human adipocytes in suspension; format: cell-based; details: incubation concentration 0.0019 wt % DE
Source text: Hydrolysis of the triglycerides to nonesterified fatty acids and glycerol is called lipolysis. Triglycerides are stored in the adipocytes and constitute the fat reserve. For this reserve to diminish, which is the desired aim when slimming products are used, the triglycerides should be hydrolysed in the form of fatty acids, which in their case can be removed from the cell. Hydrolysis of the triglycerides calls into play a hormone-dependent lipase which must be phosphorylated in order to be active. The phosphorylation step uses a kinase and cAMP. An increase in the cAMP content of the adipocytes is necessary for promoting the activity of the lipase and therefore the lipolysis. The method described consists in incubating the products in the presence of human adipocytes in suspension, followed by […].
The test is carried out using human adipocytes isolated and prepared as a cellular suspension. The adipocytes are isolated from the subcutaneous abdominal adipose tissue recovered during plastic surgery operations (abdominal plastic surgery operations) performed on women. The cells are isolated from fresh tissue. The adipose tissue is isolated and dissociated by the action of a collagenase (SIGMA™, 1 mg/ml, 30 minutes at 37° C., gentle stirring). Collagenase digests the connective tissue present in the adipose tissue. After digestion, the cells are filtered and washed in an appropriate culture medium containing MEM medium free of phenol red, free of glutamine (SIGMA)+2.2 mg/ml of sodium bicarbonate (GIBCO)+50 IU of penicillin (BIOWHITTAKER™)+50 μg/ml of streptomycin (BIOWHITTAKER™)+1% (v/v) of L-glutamine (BIOWHITTAKER™)+0.5% of lipid-free serum albumin (SIGMA™). The adipocyte suspension is used immediately after its preparation.
The test products are diluted in the adipocyte culture medium. They are incubated with the cells in suspension for two hours at 37° C. (250 μl of product+250 μl of adipocyte suspension).
After the incubation, the cell lysis is checked visually by the presence of a lipid layer at the surface of the cellular suspension. The supernatant media are collected. The free fatty acids are assayed by spectrophotometry using a commercial kit (NEFA™ C kit, WAKO), with reference to a fatty acid calibration series. The lypolytic activity of the products is evaluated relative to a control group incubated in the presence of adipocytes and in the absence of product. […] Five assays are performed for each of the test products which are as follows:
This assay is repeated by carrying out new assays at different concentrations.

lipoprotein lipase (LPL) = assay: Measurement of the activity of lipoprotein lipase (PNPB hydrolysis, 400 nm); format: biochemical, pseudomonas species; details: relative to the control
Description: Lipoprotein lipase (LPL) is an enzyme found in the extracellular compartment of adipocytes. It brings about the hydrolysis of the triglycerides contained in the chylomicrons to fatty acids and glycerol. The latter can thus penetrate into the adipocytes to be stored therein. […] It is based on an enzymatic test using a purified enzyme. A lipoprotein lipase (SIGMA, pseudomonas species) is incubated in the presence of a substrate, p-nitrophenyl butyrate (PNPB), which absorbs light at 400 nm after hydrolysis. [drawing 6] The enzyme, at 20 U/ml, is incubated in the presence of the test product and PNPB, at 0.9 mM. The kinetics of appearance of p-nitrophenol is performed at 37° C. for 10 minutes. It is monitored by measuring the absorbance at 400 nm. The results are presented in the following table, as a percentage inhibition of the lipoprotein lipase activity relative to the control.

[1] = target: T2, hyaluronidase (SIGMA), purified from bovine testicles (Bos taurus, UniProt Q2YDK3); assay: Measurement of the activity of hyaluronidase (purified enzyme); format: biochemical; details: hyaluronidase test, 60 minutes at 37° C.
T2 construct: purified from bovine testicles; purchased SIGMA; host or cells: bovine testicles
T2 sequence (Q2YDK3 36-553): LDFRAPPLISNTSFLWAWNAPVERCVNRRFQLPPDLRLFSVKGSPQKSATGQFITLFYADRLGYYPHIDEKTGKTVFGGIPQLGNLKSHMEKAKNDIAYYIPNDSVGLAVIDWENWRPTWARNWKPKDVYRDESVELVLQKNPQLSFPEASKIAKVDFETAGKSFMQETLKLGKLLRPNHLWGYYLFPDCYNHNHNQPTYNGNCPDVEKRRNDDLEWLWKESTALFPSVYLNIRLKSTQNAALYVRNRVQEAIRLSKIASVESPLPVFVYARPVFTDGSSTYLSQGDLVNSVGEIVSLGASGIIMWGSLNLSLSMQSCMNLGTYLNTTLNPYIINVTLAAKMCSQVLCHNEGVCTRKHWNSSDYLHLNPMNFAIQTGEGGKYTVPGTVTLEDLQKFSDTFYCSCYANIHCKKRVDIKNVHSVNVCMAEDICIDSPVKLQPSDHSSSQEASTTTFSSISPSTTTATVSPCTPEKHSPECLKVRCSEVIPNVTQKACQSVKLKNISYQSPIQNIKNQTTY
Description: The objective of this test is to measure the activity of hyaluronidase. This enzyme, which is naturally found in the skin, degrades hyaluronic acid. The study is carried out in vitro on the purified enzyme.
The hyaluronidase (SIGMA), purified from bovine testicles, is incubated at 0.01 U/ml in the presence of hyaluronic acid at 0.02 mg/ml, with or without test product. The incubation is carried out for 60 minutes at 37° C.
Evaluation of the effects: After the incubation, the hyaluronic acid not degraded by the enzyme is precipitated by a 24 mM sodium acetate/79. mM acetic acid mixture (10 minutes, room temperature). The precipitate is measured by spectrophotometry at 590 nm.
The effect of the test products is compared to that observed in the presence of dipotassium glycyrrhizinate, a reference hyaluronidase inhibitor.

[2] = incubation concentration 0.01 % DE

T1 sequence (P14780 107-707 limits assumed): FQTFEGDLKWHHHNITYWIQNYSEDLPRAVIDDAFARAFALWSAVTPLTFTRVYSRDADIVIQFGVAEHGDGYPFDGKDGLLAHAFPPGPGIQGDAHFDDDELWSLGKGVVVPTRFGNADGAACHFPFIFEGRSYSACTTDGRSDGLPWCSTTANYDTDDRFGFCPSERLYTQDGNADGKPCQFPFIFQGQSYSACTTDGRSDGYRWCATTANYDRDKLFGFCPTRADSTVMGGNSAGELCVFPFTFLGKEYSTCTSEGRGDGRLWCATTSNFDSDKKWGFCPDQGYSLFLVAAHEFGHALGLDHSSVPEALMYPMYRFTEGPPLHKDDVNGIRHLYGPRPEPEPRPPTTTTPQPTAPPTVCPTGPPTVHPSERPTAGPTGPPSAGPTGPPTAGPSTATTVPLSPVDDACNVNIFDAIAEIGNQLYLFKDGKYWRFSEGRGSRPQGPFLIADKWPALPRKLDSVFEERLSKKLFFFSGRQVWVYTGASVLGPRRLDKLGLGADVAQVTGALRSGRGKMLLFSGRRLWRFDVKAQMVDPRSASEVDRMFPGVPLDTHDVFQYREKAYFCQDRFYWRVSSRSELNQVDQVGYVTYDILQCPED

**Q.** `Cn1c(=O)c2c(ncn2C)n(C)c1=O` [Caffeine, 1,3,7-trimethyl-xanthine] was tested. Which MMP-9 inhibiting effect (human recombinant MMP-9) did it give?
**A.** Its MMP-9 inhibiting effect is 0%.

**Q.** What about the “Free fatty acid concentration” value (human adipocytes; 2 h at 37° C., mean of five assays) of the same compound?
**A.** The value was 15.10 ± 4.11 µM.

**Q.** What about the “Lipolytic activity (compared with the control = 100)” value (human adipocytes; control = 100) of the same compound?
**A.** Its value is 131.

**Q.** What about the “Percentage inhibition of LPL” value (lipoprotein lipase (LPL); [2]) of the same compound?
**A.** The value was 0%.

**Q.** What about the “Percentage inhibition of LPL” value (lipoprotein lipase (LPL); incubation concentration 0.1 % DE) of the same compound?
**A.** Its value is 0%.

**Q.** And the “Percentage inhibition of hyaluronidase activity” value ([1]; incubation concentration 0.001 % DE)?
**A.** Its value is 15%.

**Q.** What about the “Percentage inhibition of hyaluronidase activity” value [1, 2] of the same compound?
**A.** Its value is 20%.
